Results reported in patent US4895931A, “Phospholipase A2 -inhibiting peptides” (Kyowa Hakko Kogyo Co., Ltd., priority 1988, dated 1990).
Where a SMILES comes first, the peptide text is derived from it.

B1: rLC: lipocortin prepared using Escherichia coli according to the method of Wallner, et al. (protein, UniProt P04083 2-346, looked up)
Annexin A1: AMVSEFLKQAWFIENEEQEYVQTVKSSKGGPGSAVSPYPTFNPSSDVAALHKAIMVKGVDEATIIDILTKRNNAQRQQIKAAYLQETGKPLDETLKKALTGHLEEVVLALLKTPAQFDADELRAAMKGLGTDEDTLIEILASRTNKEIRDINRVYREELKRDLAKDITSDTSGDFRNALLSLAKGDRSEDFGVNEDLADSDARALYEAGERRKGTDVNVFNTILTTRSYPQLRRVFQKYTKYSKHDMNKVLDLELKGDIEKCLTAIVKCATSKPAFFAEKLHQAMKGVGTRHKALIRIMVSRSEIDMNDIKAFYQKMYGISLCQAILDETKGDYEKILVALCGGN
modifications: recombinant, E. coli

Biological target: T1, porcine pancreas PLA2 (Sus scrofa, UniProt P00592)
T1 construct: purchased Sigma Chemical Co. P6534; host or cells: porcine pancreas
T1 sequence (P00592 23-146): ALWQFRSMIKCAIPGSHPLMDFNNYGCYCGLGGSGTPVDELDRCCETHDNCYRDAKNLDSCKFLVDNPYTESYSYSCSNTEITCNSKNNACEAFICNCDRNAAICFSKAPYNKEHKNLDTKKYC
Assay: PLA2-inhibiting activity (release of [1-14C] arachidonic acid from labelled phosphatidylcholine)
Assay type: biochemical
Conditions: for Inhibition ratio (Inhibition rate of test compound/Inhibition rate of Compound (IV)): Amount of sample: 100 mg, relative to Compound (IV) = 1.00
Method: A test compound was dissolved in 280 μl of 0.1M Tris-hydrochloride buffer (pH 8.8) containing 10 mM calcium chloride. To the solution was added a solution of 20 ng of porcine pancreas PLA2 (Sigma Chemical Co., catalog No. P6534) in 10 μl of the buffer having the same composition as above, followed by incubation at 37° C. for 10 minutes. To the resulting mixture was added a solution of 0.1 μCi of α-palmitoyl-β[1-^14 C] arachidonylphosphatidylcholine (54 μCi/μmol, NEN Research Products Co.) in 10 μl of the same buffer as above wherein micelles were formed, followed by incubation at 37° C. for 10 minutes. Then, 3 ml of a Dale reagent solution [2-propanol :n-heptane :1M sulfuric acid=40:10:1 v/v mixture; Methods in Enzymology 14, 167 (1969)] was added to stop the reaction, and 1.5 ml of n-heptane and 1 ml of water were added, followed by shaking. Radioactivity of the free [1-^14 C] arachidonic acid extracted to the heptane layer was measured. The value of this specific radioactivity is referred to as "a". Further, "b" and "c" refer to the specific radioactivity of the heptane layer obtained by adding the same amount of the buffer in place of the test compound solution and that of the heptane layer obtained by adding the same amount of the buffer in place of the test compound and PLA2, respectively. The inhibition rate (x) was calculated by the following equation: [formula]

| Molecule | Inhibition ratio (Inhibition rate of test compound/Inhibition rate of Compound (IV)) | also measured |
| --- | --- | --- |
| CC[C@H](C)[C@H](N)C(=O)N[C@@H](CCCCN)C(=O)N[C@@H](C)C(=O)N[C@@H](C)C(=O)N[C@@H](Cc1ccc(O)cc1)C(=O)N[C@@H](CC(C)C)C(=O)N[C@@H](CCC(N)=O)C(=O)N[C@@H](CCC(=O)O)C(=O)N[C@H](C(=O)NCC(=O)N[C@@H](CCCCN)C(=O)N1CCC[C@H]1C(=O)N[C@@H](CC(C)C)C(=O)N[C@@H](CC(=O)O)C(=O)N[C@@H](CCC(=O)O)C(=O)N[C@H](C(=O)N[C@@H](CC(C)C)C(=O)N[C@@H](CCCCN)C(=O)N[C@@H](CCCCN)C(=O)N[C@@H](C)C(=O)N[C@@H](CC(C)C)C(=O)N[C@H](C(=O)NCC(=O)N[C@@H](Cc1c[nH]cn1)C(=O)N[C@@H](CC(C)C)C(=O)N[C@@H](CCC(=O)O)C(=O)O)[C@@H](C)O)[C@@H](C)O)[C@@H](C)O [III] (H-IKAAYLQETGKPLDETLKKALTGHLE-OH) | 0.20 |  |
| CC[C@H](C)[C@H](N)C(=O)N[C@@H](CCC(=O)O)C(=O)N[C@H](C(=O)N[C@@H](CC(C)C)C(=O)N[C@@H](C)C(=O)N[C@@H](CO)C(=O)N[C@@H](CCCNC(=N)N)C(=O)N[C@H](C(=O)N[C@@H](CC(N)=O)C(=O)N[C@@H](CCCCN)C(=O)N[C@@H](CCC(=O)O)C(=O)N[C@H](C(=O)N[C@@H](CCCNC(=N)N)C(=O)N[C@@H](CC(=O)O)C(=O)N[C@H](C(=O)O)[C@@H](C)CC)[C@@H](C)CC)[C@@H](C)O)[C@@H](C)CC [V] (H-IEILASRTNKEIRDI-OH) | 0.56 |  |
| CC[C@H](C)[C@H](NC(=O)[C@H](CCCNC(=N)N)NC(=O)[C@@H](NC(=O)[C@H](CC(C)C)NC(=O)[C@H](C)NC(=O)[C@H](CCCCN)NC(=O)[C@H](Cc1c[nH]cn1)NC(=O)[C@H](CCCNC(=N)N)NC(=O)[C@@H](NC(=O)CNC(=O)[C@@H](NC(=O)CN)C(C)C)[C@@H](C)O)[C@@H](C)CC)C(=O)N[C@@H](CCSC)C(=O)N[C@H](C(=O)N[C@@H](CO)C(=O)N[C@@H](CCCNC(=N)N)C(=O)O)C(C)C [X] (H-GVGTRHKALIRIMVSR-OH; N-terminus and C-terminus assumed) | 1.19 |  |
| CC[C@H](C)[C@H](NC(=O)[C@H](C)NC(=O)[C@@H](NC(=O)[C@H](CC(C)C)NC(=O)[C@H](CS)NC(=O)[C@@H](N)CCCCN)[C@@H](C)O)C(=O)N[C@H](C(=O)N[C@@H](CCCCN)C(=O)N[C@@H](CS)C(=O)N[C@@H](C)C(=O)N[C@H](C(=O)N[C@@H](CO)C(=O)N[C@@H](CCCCN)C(=O)N1CCC[C@H]1C(=O)N[C@@H](C)C(=O)O)[C@@H](C)O)C(C)C [VIII] (H-KCLTAIVKCATSKPA-OH; N-terminus and C-terminus assumed) | 1.06 |  |
| CC[C@H](C)[C@H](N)C(=O)N[C@@H](CCCCN)C(=O)N[C@@H](C)C(=O)N[C@@H](Cc1ccccc1)C(=O)N[C@@H](Cc1ccc(O)cc1)C(=O)N[C@@H](CCC(N)=O)C(=O)N[C@@H](CCCCN)C(=O)N[C@@H](CCSC)C(=O)N[C@@H](Cc1ccc(O)cc1)C(=O)NCC(=O)N[C@H](C(=O)N[C@@H](CO)C(=O)N[C@@H](CC(C)C)C(=O)N[C@@H](CS)C(=O)N[C@@H](CCC(N)=O)C(=O)N[C@@H](C)C(=O)O)[C@@H](C)CC [XII] (H-IKAFYQKMYGISLCQA-OH) |  | IC50 compared with that of lipocortin (in words): almost equal to that of lipocortin; IC50 (read-out: IC50 (concentration required for inhibiting the PLA2 activity by 50%) (converted)): 1.07 µM |
| CC(C)C[C@H](NC(=O)[C@H](C)NC(=O)[C@H](CCCCN)NC(=O)[C@H](CCCCN)NC(=O)[C@H](CC(C)C)NC(=O)[C@@H](NC(=O)[C@H](CCC(=O)O)NC(=O)[C@H](CC(=O)O)NC(=O)[C@H](CC(C)C)NC(=O)[C@@H]1CCCN1C(=O)[C@@H](N)CCCCN)[C@@H](C)O)C(=O)N[C@H](C(=O)NCC(=O)N[C@@H](Cc1c[nH]cn1)C(=O)N[C@@H](CC(C)C)C(=O)N[C@@H](CCC(=O)O)C(=O)O)[C@@H](C)O [IV] (H-KPLDETLKKALTGHLE-OH) | 1.00 | PLA2-inhibiting activity (in words): medium |
| B1 |  | IC50 (concentration required for inhibiting the PLA2 activity by 50%): 1.5 µg/mL |
